Literature values in patent publication US7547776B1, “Process for the production of fludarabine-phosphate lithium, sodium, potassium, calcium and magnesium salts and purification process for the production of fludarabine-phosphate and fludarabine-phosphate with a purity of at least 99.5%” (Bayer Schering Pharma Aktiengesellschaft, priority 1997, dated 2009).

Conditions: in water at approximately 75° C. (recrystallization)

## Nc1nc(F)nc2c1ncn2[C@@H]1O[C@H](COP(=O)(O)O)[C@@H](O)[C@@H]1O [fludarabine-phosphate, 9-β-D-arabinofuranosyl-2-fluoroadenine-5′-O-dihydrogenphosphate]
  thermal stability in water: thermally unstable
